{"source": "patent US9915650B2", "about": "“Method of detection of cAMP and cGMP via a fluorophore and dequencher complex” (HOFFMANN-LA-ROCHE INC., priority 2006, dated 2018)", "key": {"[1]": {"experiment": "Quenching of free MR121 fluorescence by cyclic nucleotides and cAMP derivates (Stern-Volmer plot)", "assay_type": "binding", "conditions": "for quenching of MR121 (decrease of fluorescence intensity, fluorescence lifetime) / association constant, Ks, with MR121: 20 nM MR121 in PBS, 30 min RT; for quenching of MR121 (decrease of fluorescence intensity, fluorescence lifetime): quencher 0-12.8 mM; for quenching of MR121 in low concentrations: concentrations up to 10 μM (range of cellular concentrations); for association constant, Ks, with MR121: calculated from linear region (up to 3.2 mM) of I0/I plot", "description": "The fluorescent intensity was adjusted to about 60% of the maximal signal of the employed iCCD camera by using attenuation filters and varying exposure times.\n(§1) Fluorescence and lifetime were measured after an incubation time of 30 minutes at RT.\nIn order to analyze the quenching mechanism, measurements of fluorescence intensity and fluorescence lifetime of free MR121 as a function of different molecules (Trp, cAMP, 2-AHA-cAMP, 8-AHA-cAMP, 8-ADOA-cAMP, 2′-AEC-cAMP, N-6-Aminohexyl-cAMP, 8-MBT-cAMP and 8-OH-cAMP, see FIG. 4, 5) were carried out.\nas §1\nIn FIG. 5 the change in fluorescence intensity (I0/I) is plotted for all cAMP derivatives investigated."}, "[2]": {"biological_target": "anti-cAMP antibody", "experiment": "cAMP/cGMP standard curves: displacement of tracer from anti-cAMP antibody, fluorescence readout", "assay_type": "binding, mouse"}, "[3]": {"experiment": "Quenching of ATTO655 by 8-AHA-cAMP (Stern-Vollmer plot)", "assay_type": "binding", "conditions": "20 nM ATTO655 in PBS, 30 min RT; linear region (up to 3.2 mM)", "description": "(§2) All fluorescence intensity measurements were carried out by means of a plate:vision fluorescence reader (Evotec Technologies GmbH, Schnackenburgallee 114, D-22525 Hamburg, Germany) equipped with a high pressure Xe arc lamp using for the measurements with MR121 an excitation filter at 630 nm (bandwidth 50 nm) and an emission filter at 695 nm (bandwidth 55 nm) and for the measurements with Atto 700 an excitation filter at 655 nm (bandwidth 50 nm) and an emission filter at 710 nm (bandwidth 40 nm). The fluorescent intensity was adjusted to about 60% of the maximal signal of the employed iCCD camera by using attenuation filters and varying exposure times. The lifetime measurements were performed by means of a plate:vision TRF reader (Evotec Technologies GmbH, Schnackenburgallee 114, D-22525 Hamburg, Germany) with an OPO system as light source (GWU Lasertechnik Vertriebsgesellschaft m.b.H., 50374 Erftstadt, Germany) tuned to 630 nm for excitation and the emission filter at 695 nm.\n(§3) 20 μl ATTO590 and ATTO655 respectively (in PBS, end concentration 20 nM) and 20 μl quencher (8-AHA-cAMP) in PBS (DMSO end concentration in the assay: 1.25%) were pipetted into a microtiter plate. Fluorescence and lifetime were measured after an incubation time of 30 minutes at RT. […] The association constant, Ks, was calculated from the linear region (up to 3.2 mM) of the plot."}, "[4]": {"experiment": "Quenching of ATTO590 by 8-AHA-cAMP (Stern-Vollmer plot)", "assay_type": "binding", "conditions": "20 nM ATTO590 in PBS, 30 min RT; linear region (up to 3.2 mM)", "description": "as §2, §3"}, "[5]": {"experiment": "Solubility seen in the quenching plot (FIG. 5)", "assay_type": "physicochemical", "conditions": "above ˜5 mM, PBS, deviation from linearity of I0/I plot", "text": "I0/I: change in fluorescence intensity"}, "[6]": {"tested_on": "CHO-K1 cells", "experiment": "cAMP cellular assay, forskolin dose response curve", "assay_type": "cell-based", "conditions": "Cricetulus griseus, 0.5 h; CHO-K1, 10,000 cells/well, 1 mM IBMX, 30 min at 37° C.", "description": "Cell numbers from 2, 500 to 20, 000 cell/well were plated in 25 μl medium and incubated for 20 h at 37° C. The medium was removed and after adding 10 μl of PBS with 0.1% BSA and 1 mM IBMX the cells were incubated for 60 minutes at 37° C. 10 μl of forskolin dilutions in PBS+0.1% BSA+1 mM IBMX from 0.01 to 300 μM (final concentration in 20 μl assay volume) were added and incubated for another 30 minutes at 37° C."}, "[7]": {"conditions": "literature value for tryptophane; cited from earlier work"}, "[8]": {"conditions": "20 nM MR121-2-AHA-cAMP tracer, 40 nM antibody, without cells (FIG. 14), read-out: IC50, comparison of standard curves for cAMP and cGMP"}}, "note": "Where “and” joins values, the source holds several entries; their conditions need not be identical. Identical values can stand only once. Entries after “also recorded” stand apart in the source; their conditions may differ. Like-named read-outs stand apart in the source and are kept apart here."}
{"molecule": "Nc1nc2c(ncn2[C@@H]2O[C@@H]3COP(=O)(O)O[C@H]3[C@H]2O)c(=O)[nH]1", "note": "[cGMP, cyclic GMP]", "values": [{"measurement": "quenching of MR121 (decrease of fluorescence intensity, fluorescence lifetime)", "setting": "[1]", "value": "quenches MR121 at higher concentrations"}, {"measurement": "quenching of MR121 in low concentrations", "setting": "[1]", "value": "neither cAMP nor cGMP quenches MR121; also recorded: neither cAMP nor cGMP quench the fluorophore"}, {"measurement": "concentration at which the nucleotide has quenching capabilities", "setting": "[1]; fluorophore quenching", "value": "≥ 1", "unit": "mM"}, {"measurement": "IC50", "setting": "[2]; [8]", "value": 0.387, "unit": "µM"}]}
{"molecule": "NCCOCCOCCNc1nc2c(N)ncnc2n1[C@@H]1O[C@@H]2COP(=O)(O)O[C@H]2[C@H]1O", "note": "[8-ADOA-cAMP, 8-(8-Amino-3,6-dioxaoctylamino)-cAMP]", "values": [{"measurement": "association constant, Ks, with MR121", "setting": "[1]", "value": 475, "unit": "M⁻¹"}]}
{"molecule": "Nc1ncnc2c1[nH]c(=O)n2C1OC2COP(=O)(O)OC2C1O", "note": "(stereo not shown) [8-OH-cAMP, 8-Hydroxy-cAMP]", "values": [{"measurement": "association constant, Ks, with MR121", "setting": "[1]", "value": 236, "unit": "M⁻¹"}]}
{"molecule": "NCCCCCCNc1ncnc2c1ncn2[C@@H]1O[C@@H]2COP(=O)(O)O[C@H]2[C@H]1O", "note": "[N-6-Aminohexyl-cAMP]", "values": [{"measurement": "quenching of MR121 (decrease of fluorescence intensity, fluorescence lifetime)", "setting": "[1]", "value": "no quenching at all"}]}
{"molecule": "NCCCCCCNc1nc2c(N)ncnc2n1[C@@H]1O[C@@H]2COP(=O)(O)O[C@H]2[C@H]1O", "note": "[8-AHA-cAMP, 8-(6-Aminohexyl)amino-cAMP]", "values": [{"measurement": "association constant, Ks, with Atto655", "setting": "[3]", "value": 347, "unit": "M⁻¹"}, {"measurement": "association constant, Ks, with Atto590", "setting": "[4]", "value": 282, "unit": "M⁻¹"}, {"measurement": "solubility", "setting": "[5]", "value": "solubility problems"}, {"measurement": "association constant, Ks, with MR121", "setting": "[1]", "value": 514, "unit": "M⁻¹"}]}
{"molecule": "C=C[C@@]1(C)CC(=O)[C@]2(O)[C@@]3(C)[C@@H](O)CCC(C)(C)[C@@H]3[C@H](O)[C@H](OC(C)=O)[C@@]2(C)O1", "note": "[forskolin]", "values": [{"measurement": "IC50", "setting": "[6]", "value": 3.7, "unit": "µM"}]}
{"molecule": "Nc1ncnc2c1ncn2[C@@H]1O[C@@H]2COP(=O)(O)O[C@H]2[C@H]1O", "note": "[cAMP, cyclic adenosine monophosphate]", "values": [{"measurement": "quenching of MR121 (decrease of fluorescence intensity, fluorescence lifetime)", "setting": "[1]", "value": "no quenching at all"}, {"measurement": "quenching of MR121 in low concentrations", "setting": "[1]", "value": "neither cAMP nor cGMP quenches MR121; also recorded: neither cAMP nor cGMP quench the fluorophore"}, {"measurement": "IC50", "setting": "[2]; 5 nM Atto700-2-AHA-cAMP tracer, 5 nM antibody, without cells (FIG. 15), read-out: IC50, dose response curve with Atto700-2-AHA-cAMP tracer", "value": 0.048, "unit": "µM"}, {"measurement": "IC50", "setting": "[2]; [8]", "value": 0.134, "unit": "µM"}, {"measurement": "IC50", "setting": "[2]; 20 nM MR121-2-AHA-cAMP, 40 nM anti-cAMP antibody, 10'000 CHO-K1 cells/well, read-out: IC50, standard curve with cells", "value": "0.119 µM and 0.102 µM"}, {"measurement": "IC50", "setting": "[2]; 20 nM MR121-2-AHA-cAMP, 40 nM anti-cAMP antibody, without cells (FIG. 8), read-out: IC50, standard curve without cells", "value": 0.109, "unit": "µM"}]}
{"molecule": "NCCCCCCNc1nc(N)c2ncn([C@@H]3O[C@@H]4COP(=O)(O)O[C@H]4[C@H]3O)c2n1", "note": "[2-AHA-cAMP, 2-(6-Aminohexyl)amino-cAMP]", "values": [{"measurement": "association constant, Ks, with MR121", "setting": "[1]", "value": 512, "unit": "M⁻¹"}]}
{"molecule": "N[C@@H](Cc1c[nH]c2ccccc12)C(=O)O", "note": "[tryptophane]", "values": [{"measurement": "quenching of MR121 (decrease of fluorescence intensity, fluorescence lifetime)", "setting": "[1]", "value": "decrease in fluorescence intensity without a change in fluorescence lifetime"}, {"measurement": "association constant Ks with MR121, reported in the literature", "setting": "[7]", "value": "~220", "unit": "M⁻¹"}]}
{"molecule": "Nc1ncnc2c1nc(SCCCCS)n2[C@@H]1O[C@@H]2COP(=O)(O)O[C@H]2[C@H]1O", "note": "[8-MBT-cAMP, 8-(4-Mercaptobutylthio)-cAMP]", "values": [{"measurement": "association constant, Ks, with MR121", "setting": "[1]", "value": 758, "unit": "M⁻¹"}]}
